Results: US12110282B2, “Thiobenzopyrans and their use in preparation of drugs for treatment of rheumatoid arthritis” (HC SYNTHETIC PHARMACEUTICAL CO., LTD., priority 2020, dated 2024)
Structures can show the parent of a compound that is named as a salt.

How the values were obtained:
[1] = system: adjuvant arthritis (AA) of rats; assay: anti-arthritic activity in the animal model of adjuvant arthritis (AA) of rats, foot swelling by drainage method; format: in vivo; design: key to The average swelling degree before administration (X ± s) / Average swelling degree after administration (X ± s): (toe volume after − before inflammation)/volume before; fraction; settings: rat adjuvant arthritis; for The average swelling degree before administration (X ± s): foot swelling degree before administration (baseline); for The average swelling degree before administration (X ± s) / Average swelling degree after administration (X ± s): n=10; for Average swelling degree after administration (X ± s): gavage 50 μg/dose/day for consecutive 5 days
Protocol: The study on the anti-arthritic activity of the compounds of the present disclosure was conducted based on the animal model of adjuvant arthritis (AA) of rats and on the establishment of adjuvant arthritis of rats. The rats were divided into 14 groups, with 10 rats in each group, and the rats were administered by gavage the compound of the present disclosure, a blank control, and a positive control substance of Iguratimod at a dose of 50 μg/dose/day for consecutive 5 days. A drainage method was used to determine the degree of foot swelling in rats of each group before and after administration, and the degree of foot swelling in rats before and after administration was calculated to determine whether the drug was effective.
Foot swelling degree X=(volume of the toe after inflammation−volume of toe before inflammation)/volume of the toe before inflammation×100%.

healthy rats = assay: content of aminotransferase in the serum of healthy rats after oral administration for 15 days; format: in vivo; settings: for ALT / AST: serum of healthy rats, oral administration for 15 days, n=10
Protocol: Elevated aminotransferase is a common side effect of Iguratimod. To investigate whether the compounds of the present disclosure have effects on aminotransferase, healthy rats were administered orally the compound of the present disclosure and Iguratimod for 15 days, respectively, and then the content of aminotransferase in the serum of rats was determined.

SMILES | The average swelling degree before administration (X ± s) [1] | Average swelling degree after administration (X ± s) [1] | ALT (healthy rats) | AST (healthy rats) | side effects (aminotransferase elevation) compared with Iguratimod (healthy rats; healthy rats, oral, conclusion in words) | anti-inflammatory effect compared with Iguratimod ([1]; conclusion in words)
CS(=O)(=O)Nc1cc2scc(NC=O)c(=O)c2cc1Oc1ccccc1 [Compound 1 potassium salt] | 0.455 ± 0.0279 | 0.020 ± 0.0323 | 126 ± 10.05 U/L | 78 ± 8.74 U/L |  | 
CS(=O)(=O)Nc1cc2scc(NC=O)c(=O)c2cc1Oc1ccccc1 [Compound 1 sodium salt] | 0.450 ± 0.0284 | 0.023 ± 0.0306 | 129 ± 10.18 U/L | 76 ± 9.22 U/L |  | 
CS(=O)(=O)Nc1cc2scc(NC=O)c(=O)c2cc1Oc1ccccc1 [Compound 1, 3-formamido-7-methylsulfonamido-6-phe noxy-4H-I-thiobenzopyran-4-one] | 0.453 ± 0.0290 | 0.020 ± 0.0335 | 125 ± 10.24 U/L | 75 ± 8.22 U/L |  | 
CS(=O)(=O)Nc1cc2scc(NC=O)c(=O)c2cc1Sc1ccccc1 [Compound 2 potassium salt] | 0.453 ± 0.0290 | 0.021 ± 0.0335 | 109 ± 9.11 U/L | 77 ± 9.02 U/L |  | 
CS(=O)(=O)Nc1cc2scc(NC=O)c(=O)c2cc1Sc1ccccc1 [Compound 2 sodium salt] | 0.448 ± 0.0291 | 0.020 ± 0.0325 | 104 ± 9.05 U/L | 76 ± 9.56 U/L |  | 
CS(=O)(=O)Nc1cc2scc(NC=O)c(=O)c2cc1Sc1ccccc1 [Compound 2, 3-formamido-7-methylsulfonamido-6-phenylthio-4H-1-thiobenzopyran-4-one] | 0.430 ± 0.0312 | 0.019 ± 0.0315 | 108 ± 9.43 U/L | 80 ± 9.28 U/L | further weaker side effects | 
CS(=O)(=O)Nc1cc2scc(NC=O)c(=O)c2cc1[S+]([O-])c1ccccc1 (stereo not drawn) [Compound 3 potassium salt] | 0.454 ± 0.0277 | 0.023 ± 0.0330 | 141 ± 7.89 U/L | 89 ± 8.91 U/L |  | 
CS(=O)(=O)Nc1cc2scc(NC=O)c(=O)c2cc1[S+]([O-])c1ccccc1 (stereo not drawn) [Compound 3 sodium salt] | 0.438 ± 0.0229 | 0.022 ± 0.0333 | 140 ± 8.83 U/L | 87 ± 9.06 U/L |  | 
CS(=O)(=O)Nc1cc2scc(NC=O)c(=O)c2cc1[S+]([O-])c1ccccc1 (stereo not drawn) [Compound 3] | 0.449 ± 0.0305 | 0.025 ± 0.0339 | 143 ± 7.83 U/L | 90 ± 8.76 U/L |  | 
CS(=O)(=O)Nc1cc2scc(NC=O)c(=O)c2cc1S(=O)(=O)c1ccccc1 [Compound 4 potassium salt] | 0.418 ± 0.0198 | 0.019 ± 0.0274 | 132 ± 8.79 U/L | 85 ± 6.87 U/L |  | 
CS(=O)(=O)Nc1cc2scc(NC=O)c(=O)c2cc1S(=O)(=O)c1ccccc1 [Compound 4 sodium salt] | 0.435 ± 0.0290 | 0.018 ± 0.0303 | 130 ± 9.15 U/L | 83 ± 8.09 U/L |  | 
CS(=O)(=O)Nc1cc2scc(NC=O)c(=O)c2cc1S(=O)(=O)c1ccccc1 [Compound 4, N-(7-(methylsulfonamido)-4-oxo-6-(phenylsulfonyl)-4H-thiobenzopyran-3-yl)carboxamide] | 0.425 ± 0.0247 | 0.017 ± 0.0305 | 133 ± 9.04 U/L | 79 ± 9.82 U/L |  | better anti-inflammatory effect
CS(=O)(=O)Nc1cc2occ(NC=O)c(=O)c2cc1Oc1ccccc1 [Iguratimod, 3-formamido-7-methylsulfonamido-6-phenoxy-4H-1-benzopyran-4-one, reference compound] | 0.445 ± 0.0321 | 0.029 ± 0.0389 | 173 ± 9.86 U/L | 145 ± 10.98 U/L |  | 
